From ChEMBL document CHEMBL4813984, “An original pronucleotide strategy for the simultaneous delivery of two bioactive drugs” (Eur J Med Chem, 2021)

Legend:
[1] = tested on: Human immunodeficiency virus 1; assay: Antiviral activity against HIV-1 infected in human MT4 cells assessed as reduction in virus-indued cytopathogenicity incubated for 5 days by MTT assay; assay type: functional, organism-based; conditions: Human immunodeficiency virus 1, MT4, 120 h
[2] = Cytotoxicity against human CEM-SS cells assessed as reduction in cell viability incubated for 5 days by MTT assay; assay type: cell-based; conditions: time 5 day
[3] = Selectivity index, ratio of CC50 for human CEM-SS cells to EC50 for antiviral activity against HIV-1 infected in human CEM-SS cells; assay type: toxicity, cell-based; conditions: read-out: Ratio CC50/EC50
[4] = Selectivity index, ratio of CC50 for human MT4 cells to EC50 for antiviral activity against HIV-1 infected in human MT4 cells; assay type: toxicity, cell-based; conditions: read-out: Ratio CC50/EC50
[5] = tested on: Human immunodeficiency virus 1; assay: Antiviral activity against HIV-1 infected in human CEM-SS cells assessed as reduction in viral multiplication by measuring decrease in reverse transcriptase activity incubated for 5 days; assay type: functional, organism-based; conditions: Human immunodeficiency virus 1, CEM-SS, 120 h
[6] = Cytotoxicity against human MT4 cells assessed as reduction in cell viability incubated for 5 days by MTT assay; assay type: cell-based; conditions: time 5 day
[7] = tested on: Human immunodeficiency virus 1; assay: Antiviral activity against HIV-1 infected in human MT4 cells assessed as reduction in virus-indued cytopathogenicity incubated for 5 days in presence of AZT by MTT assay; assay type: functional, organism-based; conditions: Human immunodeficiency virus 1, MT4, 120 h
[8] = Selectivity index, ratio of CC50 for human CEM-SS cells to EC50 for antiviral activity against HIV-1 infected in human CEM-SS cells in presence of AZT; assay type: toxicity, cell-based; conditions: read-out: Ratio CC50/EC50
[9] = Selectivity index, ratio of CC50 for human CEM-SS cells to EC50 for antiviral activity against HIV-1 infected in human CEM-SS cells in presence of ddA; assay type: toxicity, cell-based; conditions: read-out: Ratio CC50/EC50
[10] = tested on: Human immunodeficiency virus 1; assay: Antiviral activity against HIV-1 infected in human CEM-SS cells assessed as reduction in viral multiplication by measuring decrease in reverse transcriptase activity incubated for 5 days in presence of ddA; assay type: functional, organism-based; conditions: Human immunodeficiency virus 1, CEM-SS, 120 h
[11] = Selectivity index, ratio of CC50 for human MT4 cells to EC50 for antiviral activity against HIV-1 infected in human MT4 cells in presence of ddA; assay type: toxicity, cell-based; conditions: read-out: Ratio CC50/EC50
[12] = tested on: Human immunodeficiency virus 1; assay: Antiviral activity against HIV-1 infected in human CEM-TK(-) cells assessed as reduction in viral multiplication by measuring decrease in reverse transcriptase activity incubated for 6 days; assay type: functional, organism-based; conditions: Human immunodeficiency virus 1, CEM-TK(-), 144 h
[13] = Selectivity index, ratio of CC50 for human CEM-TK(-) cells to EC50 for antiviral activity against HIV-1 infected in human CEM-TK(-) cells in presence of AZT; assay type: toxicity, cell-based; conditions: read-out: Ratio CC50/EC50
[14] = Cytotoxicity against human CEM-SS cells assessed as reduction in cell viability incubated for 5 days in presence of AZT by MTT assay; assay type: cell-based; conditions: time 5 day
[15] = tested on: Human immunodeficiency virus 1; assay: Antiviral activity against HIV-1 infected in human CEM-SS cells assessed as reduction in viral multiplication by measuring decrease in reverse transcriptase activity incubated for 5 days in presence of AZT; assay type: functional, organism-based; conditions: Human immunodeficiency virus 1, CEM-SS, 120 h
[16] = Cytotoxicity against human CEM-SS cells assessed as reduction in cell viability incubated for 5 days in presence of ddA by MTT assay; assay type: cell-based; conditions: time 5 day
[17] = Cytotoxicity against human CEM-TK(-) cells assessed as reduction in cell viability incubated for 5 days by MTT assay; assay type: cell-based; conditions: time 5 day
[18] = tested on: Human immunodeficiency virus 1; assay: Antiviral activity against HIV-1 infected in human MT4 cells assessed as reduction in virus-indued cytopathogenicity incubated for 5 days in presence of ddA by MTT assay; assay type: functional, organism-based; conditions: Human immunodeficiency virus 1, MT4, 120 h
[19] = Cytotoxicity against human CEM-TK(-) cells assessed as reduction in cell viability incubated for 5 days in presence of AZT by MTT assay; assay type: cell-based; conditions: time 5 day
[20] = Selectivity index, ratio of CC50 for human MT4 cells to EC50 for antiviral activity against HIV-1 infected in human MT4 cells in presence of AZT; assay type: toxicity, cell-based; conditions: read-out: Ratio CC50/EC50
[21] = Cytotoxicity against human MT4 cells assessed as reduction in cell viability incubated for 5 days in presence of AZT by MTT assay; assay type: cell-based; conditions: time 5 day
[22] = tested on: Human immunodeficiency virus 1; assay: Antiviral activity against HIV-1 infected in human CEM-TK(-) cells assessed as reduction in viral multiplication by measuring decrease in reverse transcriptase activity incubated for 6 days in presence of AZT; assay type: functional, organism-based; conditions: Human immunodeficiency virus 1, CEM-TK(-), 144 h
[23] = Cytotoxicity against human MT4 cells assessed as reduction in cell viability incubated for 5 days in presence of ddA by MTT assay; assay type: cell-based; conditions: time 5 day
[24] = Selectivity index, ratio of CC50 for human CEM-TK(-) cells to EC50 for antiviral activity against HIV-1 infected in human CEM-TK(-) cells; assay type: toxicity, cell-based; conditions: read-out: Ratio CC50/EC50

Compound	EC50 [1] [µM]	CC50 at 120 h [2] [µM]	selectivity ratio [3]	selectivity ratio [4]	EC50 [5] [µM]	CC50 at 120 h [6] [µM]	EC50 [12] [µM]	CC50 at 120 h [17] [µM]	further results
Nc1ncnc2c1ncn2[C@H]1CC[C@@H](CO)O1	9	> 110	> 55	> 12	2	> 110			
Nc1ccn([C@H]2CC[C@@H](CO)O2)c(=O)n1 [ZALCITABINE]	2	16	239	90	0.067	180	0.015	7	EC50 [7]: 0.083 µM; selectivity ratio [8]: 2880; selectivity ratio [9]: 4600; EC50 [10]: 0.01 µM; selectivity ratio [11]: > 83; selectivity ratio [13]: 922; CC50 at 120 h [14]: 46 µM; EC50 [15]: 0.016 µM; CC50 at 120 h [16]: 46 µM; EC50 [18]: 1.2 µM; CC50 at 120 h [19]: 8.3 µM; selectivity ratio [20]: 15700; CC50 at 120 h [21]: 130 µM; EC50 [22]: 0.009 µM; CC50 at 120 h [23]: > 100 µM; selectivity ratio [24]: 467
Cc1cn([C@H]2C[C@H](N=[N+]=[N-])[C@@H](CO)O2)c(=O)[nH]c1=O [ZIDOVUDINE]		> 1000	> 40000	8240	0.024	140	> 100	> 1000	
